# Values of other authors in US20160008277A1, “CO-PACKAGED DRUG PRODUCTS” (Lightlake Therapeutics Inc., priority 2014, published 2016).
# Columns and labels:
# mouse = settings: intravenous; cited from earlier work
# rat = settings: intravenous; cited from earlier work
# newborn rats = settings: acute subcutaneous; cited from earlier work
structure (smiles),measurement,setting,value
"C=CCN1CC[C@]23c4c5ccc(O)c4O[C@H]2C(=O)CC[C@@]3(O)[C@H]1C5.Cl [naloxone hydrochloride, 17-allyl-4,5a-epoxy-3,14-dihydroxymorphinan-6-one hydrochloride]",LD50,mouse,150 ± 5 mg/kg
same,LD50,rat,109 ± 4 mg/kg
same,LD50 (95% CL),newborn rats,260 (228-296) mg/kg
